# Assays:
# human P450 51A1 [1] = molecular target: T1, human P450 51A1 (Homo sapiens, UniProt Q16850); assay: Oxidation of dihydroagnosterol by human P450 51A1 (LC-UV); format: biochemical; design: made in house; host or cells: Escherichia coli
# T1 sequence (Q16850 1-509): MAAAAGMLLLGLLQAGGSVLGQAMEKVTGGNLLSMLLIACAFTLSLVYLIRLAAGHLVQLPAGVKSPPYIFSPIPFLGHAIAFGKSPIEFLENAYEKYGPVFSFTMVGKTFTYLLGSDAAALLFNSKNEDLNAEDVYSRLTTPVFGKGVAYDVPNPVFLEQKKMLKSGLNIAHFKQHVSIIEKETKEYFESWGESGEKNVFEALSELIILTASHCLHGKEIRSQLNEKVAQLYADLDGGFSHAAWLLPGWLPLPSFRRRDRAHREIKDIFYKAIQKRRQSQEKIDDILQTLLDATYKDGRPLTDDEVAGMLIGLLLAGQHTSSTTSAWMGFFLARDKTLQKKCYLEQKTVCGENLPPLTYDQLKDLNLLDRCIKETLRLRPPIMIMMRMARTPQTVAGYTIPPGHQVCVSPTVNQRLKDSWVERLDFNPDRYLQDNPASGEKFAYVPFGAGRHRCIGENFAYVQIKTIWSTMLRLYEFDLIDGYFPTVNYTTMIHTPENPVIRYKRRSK
# Procedure: The possibility existed that this molecule could be a substrate. […] However, on the basis of the UV and mass spectra and literature precedents ([38], [39]), we have assigned the structure as 4,4′-dimethylcholesta-7,9,14-trienol. The UV spectrum retains (Fig. 6) the detailed chromophore of agnosterol (Fig. S23) plus an additional transition at higher wavelength, as expected based on the UV spectrum of FF-MAS (Fig. S18).
# Figure 6 Oxidation of dihydroagnosterol by human P450 51A1. The incubation included 0.1 μM P450 51A1 and 10 μM dihydroagnosterol and ran for 10 min at 37 °C in the absence and presence of NADPH. The products were extracted and analyzed by UPLC-UV and UPLC-MS. A, UPLC chromatogram (UV, 192 and 245 nm). B, mass spectrum [M+H-H2O]^+, calculated for C29H45, 393.3516; found, 393.3493 (−5.9 ppm) and assigned structure. C, UV spectrum (from tR 7.3 min peak of A). UPLC, ultra-performance liquid chromatography.
# human P450 51A1 [2] = molecular target: T1, human P450 51A1; assay: Inhibition of dihydrolanosterol 14-demethylation (oxidation to dihydro FF-MAS); format: biochemical; design: made in house; host or cells: Escherichia coli
# Excerpt: Agnosterol (Fig. 2) is a common Δ^7,14 contaminant of commercial lanosterol preparations (Fig. S22) ([25], [36]). We also encountered this molecule and its derivatives, with its characteristic UV spectra derived from our synthesis beginning with 7-dehydrocholesterol (Figs. S1 and S17). The most likely entry point is the m-chloroperbenzoic acid epoxidation (Fig. S1, step 7) ([37]). […] The contaminant could be removed by preparative HPLC (C18, CH3CN, see Supporting Information).
# epi-Dihydrolanosterol, which appears to be an obscure natural product ([32]), was recovered as a side product in one of the synthetic steps and shown to bind to human P450 51A1 tightly and be demethylated at a similar rate as the common β-hydroxy isomer (Figs 5B and 7A), behavior similar to that earlier reported for the yeast (Saccharomyces cerevisiae) enzyme ([34]). An H-bond between the sterol C3-OH and the main chain oxygen of a P450 51 residue preceding the beginning of the β1-4 strand is observed in four P450 51 structures in the Protein Data Bank: Trypanosoma brucei [3P99] ([48]), Trypanosoma cruzi [6FMO] ([49]), human [6UEZ] ([19]), plus a sterol-forming bacterium, Methylococcus capsulatus [7SNM] ([50]). Whether this interaction is replaced by another with epi-lanosterol is presently a point of conjecture and future research. […]
smiles,measurement,setting,value
CC(C)CCCC(C)[C@H]1CC[C@@]2(C)C3=CCC4C(C)(C)[C@@H](O)CC[C@]4(C)C3=CC[C@]12C (stereo partly drawn) [dihydroagnosterol],rate of disappearance relative to that of dihydrolanosterol,human P450 51A1 [1],one-half
same,rate of disappearance,"human P450 51A1 [1]; 0.1 μM P450 51A1, 10 μM dihydroagnosterol, 37 °C",~10 min⁻¹
same,IC50,human P450 51A1 [2],≥ 10 µM

# Source: paper PMC10285260, “Processive kinetics in the three-step lanosterol 14α-demethylation reaction catalyzed by human cytochrome P450 51A1” (The Journal of Biological Chemistry, 2023)
